In patent US11999699B2, “Substituted pyrazole amides” (GRUENENTHAL GMBH, priority 2021, dated 2024) one finds IC50 data, which are given here for 36 compounds.

The structures appear in SMILES notation. Where only a bound is given, the exact number is not on record here.

T1 sequence (Q9Y5Y9 whole entry): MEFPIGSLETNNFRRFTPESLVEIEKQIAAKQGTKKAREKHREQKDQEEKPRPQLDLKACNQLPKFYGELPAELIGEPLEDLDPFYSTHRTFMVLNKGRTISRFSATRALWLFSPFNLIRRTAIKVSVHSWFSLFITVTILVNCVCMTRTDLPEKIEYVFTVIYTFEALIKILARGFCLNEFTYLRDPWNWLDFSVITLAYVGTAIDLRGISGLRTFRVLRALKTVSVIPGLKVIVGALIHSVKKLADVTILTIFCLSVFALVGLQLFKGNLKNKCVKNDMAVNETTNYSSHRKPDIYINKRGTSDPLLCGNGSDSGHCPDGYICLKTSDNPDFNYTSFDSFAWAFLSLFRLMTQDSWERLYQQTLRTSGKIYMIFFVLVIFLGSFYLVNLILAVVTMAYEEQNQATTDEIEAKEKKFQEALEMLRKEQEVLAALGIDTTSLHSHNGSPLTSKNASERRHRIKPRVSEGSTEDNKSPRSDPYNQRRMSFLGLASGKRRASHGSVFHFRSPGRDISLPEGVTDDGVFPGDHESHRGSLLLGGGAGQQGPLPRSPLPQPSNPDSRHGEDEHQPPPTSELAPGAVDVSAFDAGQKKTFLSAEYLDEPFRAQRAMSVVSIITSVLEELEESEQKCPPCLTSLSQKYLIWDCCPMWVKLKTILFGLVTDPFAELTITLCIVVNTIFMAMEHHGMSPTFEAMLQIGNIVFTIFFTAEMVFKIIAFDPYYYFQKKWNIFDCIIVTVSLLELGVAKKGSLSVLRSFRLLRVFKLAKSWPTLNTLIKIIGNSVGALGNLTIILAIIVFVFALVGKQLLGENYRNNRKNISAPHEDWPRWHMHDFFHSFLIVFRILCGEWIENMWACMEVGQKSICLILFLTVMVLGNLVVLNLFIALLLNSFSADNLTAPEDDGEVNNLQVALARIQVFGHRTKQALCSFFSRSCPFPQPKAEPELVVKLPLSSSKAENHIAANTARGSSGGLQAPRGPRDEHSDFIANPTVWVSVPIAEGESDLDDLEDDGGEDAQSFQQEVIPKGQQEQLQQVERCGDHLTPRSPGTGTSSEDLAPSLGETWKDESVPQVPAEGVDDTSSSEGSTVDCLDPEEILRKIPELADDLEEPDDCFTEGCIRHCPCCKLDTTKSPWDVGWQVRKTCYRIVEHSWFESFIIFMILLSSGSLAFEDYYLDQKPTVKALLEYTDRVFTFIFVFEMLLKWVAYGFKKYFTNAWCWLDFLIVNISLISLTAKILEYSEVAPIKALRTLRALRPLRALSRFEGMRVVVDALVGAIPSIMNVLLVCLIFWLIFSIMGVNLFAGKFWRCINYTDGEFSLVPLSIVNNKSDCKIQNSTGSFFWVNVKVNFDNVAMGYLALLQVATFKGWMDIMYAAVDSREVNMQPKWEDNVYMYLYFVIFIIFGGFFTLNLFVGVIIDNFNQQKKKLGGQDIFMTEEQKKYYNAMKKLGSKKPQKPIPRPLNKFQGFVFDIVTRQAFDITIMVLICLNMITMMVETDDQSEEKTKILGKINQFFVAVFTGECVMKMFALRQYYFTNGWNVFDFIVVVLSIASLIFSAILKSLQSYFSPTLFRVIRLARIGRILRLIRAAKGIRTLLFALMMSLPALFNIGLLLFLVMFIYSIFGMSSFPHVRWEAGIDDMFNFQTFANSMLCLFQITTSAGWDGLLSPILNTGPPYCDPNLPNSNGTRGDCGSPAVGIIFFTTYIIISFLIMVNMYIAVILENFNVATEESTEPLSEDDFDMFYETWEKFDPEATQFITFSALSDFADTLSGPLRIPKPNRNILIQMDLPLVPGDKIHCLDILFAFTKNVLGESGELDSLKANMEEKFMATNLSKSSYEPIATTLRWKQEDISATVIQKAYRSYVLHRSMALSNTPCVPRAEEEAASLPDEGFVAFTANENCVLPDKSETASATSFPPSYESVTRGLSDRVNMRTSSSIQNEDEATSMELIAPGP
T1 sequence (Q9NY72 23-215 partner): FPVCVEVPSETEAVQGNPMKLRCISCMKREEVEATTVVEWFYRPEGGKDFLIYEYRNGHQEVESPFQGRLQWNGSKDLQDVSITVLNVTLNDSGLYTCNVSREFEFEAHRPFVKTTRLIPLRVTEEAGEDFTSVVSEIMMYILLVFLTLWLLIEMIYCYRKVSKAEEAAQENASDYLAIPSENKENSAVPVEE

The assay addresses T1, human NaV1.8 (Homo sapiens, UniProt Q9Y5Y9).
T1 construct: The following NaV1.8 recombinant cell line was used for recordings: HEK-NaV1.8 (NM 006514.1); expressed in transfected cells; host or cells: HEK (recombinant cell line HEK-NaV1.8)
The experiment in a line: Electrophysiology: automated whole-cell voltage-clamp (patch clamp, Qube384) recordings of sodium currents in HEK-NaV1.8 cells. In kind it is cell-based. As to conditions: potency data either taken from inactivated or resting state, read-out: Potency category (human NaV1.8 IC50). The gist of the method: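 Automated whole-cell patch clamp at room temperature on HEK cells expressing human NaV1.8, with 0.3% DMSO vehicle controls. State-dependent protocol from −120 mV tested resting (P1) and half-inactivated (P2, 4 s at V1/2) channels, plus 40-pulse trains at 10 and 20 Hz. Values after ~12 min compound exposure were normalised to baseline and corrected for vehicle run-down; IC50 from a 4-parameter logistic fit, taken from inactivated or resting state.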
A general note: Patch clamp records ionic current or voltage across a cell membrane.
Consider `NC(=O)c1cc(NC(=O)c2c(C(F)(F)F)cnn2CC2CCC(F)(F)CC2)ccc1F` [SC-39, N-(3-carbamoyl-4-fluorophenyl)-2-[(4,4-difluorocyclohexyl)methyl]-4-(trifluoromethyl)pyrazole-3-carboxamide], for which the IC50 (in general, the concentration that gives 50% inhibition) fell in the range of 100 to 1000 nM. On to `Cc1c(C(C)(F)F)nn(CC2(C)CC(F)(F)C2)c1C(=O)Nc1ccnc(S(N)(=O)=O)c1` [SC-209, 1-((3,3-difluoro-1-methylcyclobutyl)methyl)-3-(1,1-difluoroethyl)-4-methyl-N-(2-sulfamoylpyridin-4-yl)-1H-pyrazole-5-carboxamide], for which the IC50 is no more than 100 nM. On to `COc1nn(CC2CCC(F)(F)C2)c(C(=O)Nc2ccnc(S(C)(=O)=O)c2)c1C(F)(F)F` (stereo not drawn) [SC-225, 1-((3,3-difluorocyclopentyl)methyl)-3-methoxy-N-(2-(methylsulfonyl)pyridin-4-yl)-4-(trifluoromethyl)-1H-pyrazole-5-carboxamide], for which the IC50 is no more than 100 nM. With `CS(=O)(=O)c1cc(NC(=O)c2c(OC(F)F)c(C3CC3)nn2CC2CCOCC2)ccn1` [SC-322, 3-cyclopropyl-4-(difluoromethoxy)-N-(2-(methylsulfonyl)pyridin-4-yl)-1-((tetrahydro-2H-pyran-4-yl)methyl)-1H-pyrazole-5-carboxamide] the figure was 1000 to 10000 nM; with `CS(=O)(=O)c1cccc(NC(=O)c2c(C(F)(F)F)cnn2CC2CCOCC2)c1` [SC-28, N-(3-methylsulfonylphenyl)-2-(oxan-4-ylmethyl)-4-(trifluoromethyl)pyrazole-3-carboxamide], 1000 to 10000 nM; with `Cc1c(C(C)(F)F)nn(CC2(C(F)F)CC(F)(F)C2)c1C(=O)Nc1ccnc(S(N)(=O)=O)c1` [SC-316, 3-(1,1-difluoroethyl)-1-((1-(difluoromethyl)-3,3-difluorocyclobutyl)methyl)-4-methyl-N-(2-sulfamoylpyridin-4-yl)-1H-pyrazole-5-carboxamide], no more than 100 nM.

Consider `NC(=O)c1ccc(NC(=O)c2c(C(F)(F)F)cnn2CC2CCC(F)(F)CC2)cc1F` [SC-21, N-(4-carbamoyl-3-fluorophenyl)-1-[(4,4-difluorocyclohexyl)methyl]-4-(trifluoromethyl)-1H-pyrazole-5-carboxamide], for which the IC50 was 1000 to 10000 nM. The same measure for `CS(=O)(=O)c1cccc(NC(=O)c2cc(C3CC3)nn2CC2CCCCC2)c1` [SC-12, 2-(cyclohexylmethyl)-5-cyclopropyl-N-(3-methylsulfonylphenyl)pyrazole-3-carboxamide]: 100 to 1000 nM. As for `CS(=O)(=O)c1cccc(NC(=O)c2c(C(F)(F)F)cnn2CC2CCCCCC2)c1` [SC-27, 2-(cycloheptylmethyl)-N-(3-methylsulfonylphenyl)-4-(trifluoromethyl)pyrazole-3-carboxamide], the IC50 is no more than 100 nM. The same measure for `NC(=O)c1cc(NC(=O)c2c(C(F)F)c(C3CC3)nn2CC2CCC(F)(F)C2)ccn1` (stereo not drawn) [SC-216, 4-(3-cyclopropyl-1-((3,3-difluorocyclopentyl)methyl)-4-(difluoromethyl)-1H-pyrazole-5-carboxamido)picolinamide]: no more than 100 nM; for `NC(=O)c1cc(NC(=O)c2c(C(F)(F)F)c(C3CC3)nn2CC2CCC2)ccn1` [SC-159, 4-(1-(cyclobutylmethyl)-3-cyclopropyl-4-(trifluoromethyl)-1H-pyrazole-5-carboxamido)picolinamide]: no more than 100 nM; for `C[C@@H]1CC[C@H](Cn2nc(C3CC3)c(C(F)(F)F)c2C(=O)Nc2ccnc(C(N)=O)c2)O1` (single isomer, unassigned) [SC-286b]: 100 to 1000 nM.

Consider `Cc1c(C(C)(F)F)nn(CC2(F)CC2)c1C(=O)Nc1ccnc(S(N)(=O)=O)c1` [SC-310, 3-(1,1-difluoroethyl)-1-((1-fluorocyclopropyl)methyl)-4-methyl-N-(2-sulfamoylpyridin-4-yl)-lH-pyrazole-5-carboxamide], for which the IC50 lay in the range of 100 to 1000 nM.

On to `NC(=O)c1cc(NC(=O)c2c(C(F)(F)F)c(C(F)F)nn2CC2CCC(F)(F)C2)ccn1` (stereo not drawn) [SC-325, 4-(1-((3,3-difluorocyclopentyl)methyl)-3-(difluoromethyl)-4-(trifluoromethyl)-1H-pyrazole-5-carboxamido)picolinamide], for which the IC50 was no more than 100 nM. For the compound `Cc1c(C(C)(F)F)nn(CC2CC(F)(F)CC2C(F)(F)F)c1C(=O)Nc1ccnc(C(N)=O)c1` (racemic) [SC-217, 4-(1-((4,4-difluoro-2-(trifluoromethyl)cyclopentyl)methyl)-3-(1,1-difluoroethyl)-4-methyl-1H-pyrazole-5-carboxamido)picolinamide], the 50% inhibitory concentration (IC50) is no more than 100 nM. With `Cc1nn(CC2CCC(F)(F)CC2)c(C(=O)Nc2ccnc(C(N)=O)c2F)c1C(F)(F)F` [SC-289, 4-(1-((4,4-difluorocyclohexyl)methyl)-3-methyl-4-(trifluoromethyl)-1H-pyrazole-5-carboxamido)-3-fluoropicolinamide] the figure was 1000 to 10000 nM; with `COC1(Cn2nc(C(C)(F)F)c(C)c2C(=O)Nc2ccnc(S(N)(=O)=O)c2)CC1` [SC-308, 3-(1,1-difluoroethyl)-1-((1-methoxycyclopropyl)methyl)-4-methyl-N-(2-sulfamoylpyridin-4-yl)-1H-pyrazole-5-carboxamide], 1000 to 10000 nM; with `NC(=O)c1cc(NC(=O)c2c(C(F)(F)F)c(C3CC3)nn2CC2CCCOC2)ccn1` (single isomer, unassigned) [SC-145a, 4-(3-Cyclopropyl-1-((tetrahydro-2H-pyran-3-yl)methyl)-4-(trifluoromethyl)-1H-pyrazole-5-carboxamido)picolinamide], no more than 100 nM. The same measure for `Cc1c(C(F)(F)F)nn(CC2CCC(F)(F)C2)c1C(=O)Nc1ccnc(C(N)=O)c1` (single isomer, unassigned) [SC-118b]: no more than 100 nM; for `Cc1cc(C(=O)Nc2cccc(S(C)(=O)=O)c2)n(CC2CCCCC2)n1` [SC-11, 2-(cyclohexylmethyl)-5-methyl-N-(3-methylsulfonylphenyl)pyrazole-3-carboxamide]: 1000 to 10000 nM; for `Cc1nn(CC2CCCCC2)c(C(=O)Nc2cccc(S(N)(=O)=O)c2)c1C(F)(F)F` [SC-244, 1-(cyclohexyimethyl)-3-methyl-N-(3-sulfamoylphenyl)-4-(trifluoromethyl)-1H-pyrazole-5-carboxamide]: no more than 100 nM.

`NC(=O)c1cc(NC(=O)c2c(C(F)(F)F)c(C3CC3)nn2CC2CC(F)(F)C2(F)F)ccn1` (single isomer, unassigned) [SC-291b]: the concentration for half-maximal inhibition (IC50) was no more than 100 nM. The same measure for `CS(=O)(=O)n1cc(NC(=O)c2c(C(F)(F)F)cnn2CC2CCCCC2)cn1` [SC-36, 2-(cyclohexylmethyl)-N-(1-methylsulfonylpyrazol-4-yl)-4-(trifluoromethyl)pyrazole-3-carboxamide]: 100 to 1000 nM; for `COC1CC(Cn2nc(C3CC3)c(C(F)(F)F)c2C(=O)Nc2ccnc(C(N)=O)c2)C1` (single isomer, unassigned) [SC-281a]: 100 to 1000 nM.

As for `Cc1c(C(C)(F)F)nn(CC2(C)CC2)c1C(=O)Nc1ccnc(S(N)(=O)=O)c1` [SC-313, 3-(1,1-difluoroethyl)-4-methyl-1-((1-methyleyelopropyl)methyl)-N-(2-sulfamoylpyridin-4-yl)-lH-pyrazole-5-carboxamide], the IC50 is no more than 100 nM. The same measure for `Cc1c(C(C)(F)F)nn(CC2(C)CCCO2)c1C(=O)Nc1ccnc(S(N)(=O)=O)c1` (single isomer, unassigned) [SC-319b]: 1000 to 10000 nM; for `Cc1nn(C[C@@H]2CCC(F)(F)C2)c(C(=O)Nc2cncc(C(N)=O)c2)c1C(F)(F)F` [SC-247R]: 1000 to 10000 nM.

Turning to `NC(=O)c1cc(NC(=O)c2c(C(F)(F)F)c(C3CC3)nn2CC2CC(OC(F)(F)F)C2)ccn1` (single isomer, unassigned) [SC-219a], the IC50 was no more than 100 nM. With `Cc1nn(CC2CCC(F)(F)CC2)c(C(=O)Nc2ccnc(C#N)c2)c1C` [SC-231, N-(2-cyanopyridin-4-yl)-1-((4,4-difluorocyclohexyl)methyl)-3,4-dimethyl-1H-pyrazole-5-carboxamide] the figure was 1000 to 10000 nM. The same measure for `COc1c(C(C)(F)F)nn(CC2CCC(F)(F)C2)c1C(=O)Nc1ccnc(C(N)=O)c1` (single isomer, unassigned) [SC-271a]: 100 to 1000 nM; for `CCc1nn(CC2CC(F)(F)C2)c(C(=O)Nc2ccnc(C(N)=O)c2)c1C(F)(F)F` [SC-172, 4-(1-((3,3-difluorocyclobutyl)methyl)-3-ethyl-4-(trifluoromethyl)-1H-pyrazole-5-carboxamido)picolinamide]: no more than 100 nM. With `Cc1c(C(C)(F)F)nn(C[C@H]2C[C@@H](F)C2)c1C(=O)Nc1ccnc(C(N)=O)c1` [SC-301, 4-(3-(1,1-difluoroethyl)-1-((3-fluorocyclobutyl)methyl)-4-methyl-1H-pyrazole-5-carboxamido)picolinamide] the figure was 100 to 1000 nM; with `CC(C)c1nn(CC2CC(F)(F)C2)c(C(=O)Nc2ccnc(C(N)=O)c2)c1C(F)(F)F` [SC-170, 4-(1-((3,3-difluorocyclobutyl)methyl)-3-isopropyl-4-(trifluoromethyl)-1H-pyrazole-5-carboxamido)picolinamide], no more than 100 nM; with `CS(=O)(=O)c1cccc(NC(=O)c2c(C(F)(F)F)cnn2CC2(O)CCCCC2)c1` [SC-255, 1-((1-hydroxycyclohexyl)methyl)-N-(3-(methylsulfonyl)phenyl)-4-(trifluoromethyl)-1H-pyrazole-5-carboxamide], 1000 to 10000 nM. As to `NC(=O)c1cc(NC(=O)c2c(C(F)(F)F)c(C3CC3)nn2C[C@@H]2CCO[C@H]2C(F)(F)F)ccn1` (racemic) [SC-147c], the IC50 is no more than 100 nM. The same measure for `NC(=O)c1cc(NC(=O)c2c(C(F)(F)F)c(OC(F)F)nn2C[C@@H]2CCC(F)(F)C2)ccn1` [SC-158R]: no more than 100 nM.
